{"source": "patent US9387213B2", "about": "“Small molecules inhibiting oncoprotein Myc” (Health Research, Inc., priority 2012, dated 2016)", "key": {"SK-Mel-103": {"tested_on": "SK-Mel-103", "assay": "Suppression of proliferation / senescence induction in melanoma line", "type": "cell-based", "conditions": "Homo sapiens", "from_the_text": "(§1) 260 analogs of N77A7 were selected from several commercially available libraries of small molecules based on the structural similarities with N77A7. The compounds were screened for the ability to permanently suppress proliferation and induce senescence in cells from melanoma lines SK-Mel-19 and SK-Mel-103. Based on the above-described screening procedure, seven small molecules were identified as having IC50 values lower than that of N77A7."}, "SK-Mel-19": {"tested_on": "SK-Mel-19", "assay": "Suppression of proliferation / senescence induction in melanoma line", "type": "cell-based", "conditions": "Homo sapiens, SK-MEL19", "from_the_text": "as §1"}, "in vitro": {"assay": "in vitro", "conditions": "microsomes, pH 7.4; for Percent Remaining 0 min: 0 h; for Percent Remaining 30 min: 0.5 h; for Percent Remaining 60 min: 1 h", "procedure": "Additionally, several of the N77A7 analogs were subjected to the test for the metabolic stability in human and mouse liver microsomes. Briefly, 1 μM of test compound was incubated with microsomal protein (human liver microsomes: 0.5 mg/mL; mouse liver microsomes 0.5 mg/mL) and buffer (100 mM potassium phosphate, pH 7.4, 5 mM magnesium chloride). The positive control was 5 μM testosterone. The reaction was equilibrated at 37 C in a shaking water bath for 3 to 5 minutes. After equilibration, an aliquot was removed and combined with 50/50 acetonitrile/water containing 0.1% formic acid and internal standard to terminate the reaction. 1 mM NADPH was immediately added and the tube was returned to the water bath. Five sample time points were taken (0, 10, 20, 30, and 60 minutes). Aliquots were removed and combined with 50/50 acetonitrile/water containing 0.1% formic acid and internal standard to terminate the reaction. The samples were mixed for 10 minutes and centrifuged. The supernatant from each sample was diluted (if necessary) and then transferred to vials for analysis by LC-MS/MS for the test compound and internal standard without calibration standards. The percent remaining at each time point was determined by the test compound's peak area response ratio versus the 0 minute sample."}, "HO-null cells": {"tested_on": "HO-null cells", "assay": "Secondary filter for Myc specificity: cell growth inhibition, methylene blue staining", "type": "cell-based", "conditions": "Rattus norvegicus, 72 h, read-out: ID50 HO-null", "procedure": "(§2) FIG. 4 illustrates the myc specificity of tested compounds. Rat1a cells expressing c-myc, L-myc or N-myc or lacking any Myc (null) were treated for 72 h with a range of hit compound concentrations. The cells were then fixed and stained with methylene blue and the percentage of cells in the presence of compound compared to DMSO only control was calculated.\n(§3) Validated hits were divided into classes when two or more compounds shared significant structural similarity. The ID50 for N-myc transactivation (the inhibitory dose resulting in 50% decrease in luciferase activity) for each hit was calculated from the dose-response N-myc responsive reporter assay. Compounds within each class were ranked by their ID50 for N-myc transactivation and the best compounds within each class were chosen for further studies. In addition, the best of the structurally unique compounds were also analyzed. A total of 46 hits were passed through a secondary filter designed to determine the specificity of the hits for Myc proteins. For this filter, we used a panel of cell lines derived from Rat1a cells (kindly provided by Michael Cole, Dartmouth University): HO-null-c-Myc deficient cells due to homologous recombination that express neither N-myc nor L-myc HO-c-Myc, HO-L-myc and HO-N-myc derived by retroviral transduction of the corresponding Myc genes into HO-null cells. Since each cell line expresses only a single Myc or no Myc family members, we could identify compounds that act through Myc family members as well as which Myc family members. […] The 18 Myc-specific compounds identified during the screening and filtering process are presented in Table 1 and represent distinct classes of molecules, including pyrazoles (e.g., N147A7, N47E10, N147G5), tetrazoles (e.g., N77A7) and 3-bromophenol (e.g., N4G6)."}, "HO-N-myc cells": {"tested_on": "HO-N-myc cells", "assay": "Secondary filter for Myc specificity: cell growth inhibition, methylene blue staining", "type": "cell-based, rat", "procedure": "as §2, §3"}, "HO-c-Myc cells": {"tested_on": "HO-c-Myc cells", "assay": "Secondary filter for Myc specificity: cell growth inhibition, methylene blue staining", "type": "cell-based, rat", "procedure": "as §2, §3"}, "[1]": {"tested_on": "panel of tumor cell lines, including neuroblastoma and melanoma", "assay": "Effect of Myc inhibitors against panel of tumor cell lines, growth/viability by MTS and resazurin", "type": "cell-based, human", "conditions": "neuroblastoma lines IMR32, NBL-WN, 72 h", "procedure": "FIG. 6 illustrates putative Myc inhibitors that are efficacious against tumor but not normal cells. Melanocytes and melanoma (#3 and #10) (A) and neuroblastoma (B) were incubated in the continuous presence of Myc inhibitors for 72 h and cell growth/viability determined by standard MTS and resazurin methods, respectively. Data for three hits is presented as a percent of DMSO vehicle control."}}}
{"smiles": "CCN(CC)Cc1c(C(=O)N/N=C/c2ccc(N(CC)CC)cc2O)nnn1-c1nonc1N", "note": "[Compound 6]", "values": [{"measurement": "IC50", "setting": "SK-Mel-103", "result": 250, "unit": "nM"}, {"measurement": "IC50", "setting": "SK-Mel-19", "result": 350, "unit": "nM"}, {"measurement": "Percent Remaining 0 min", "setting": "in vitro; human, 1 μM", "result": 100, "unit": "%"}, {"measurement": "Percent Remaining 10 min", "setting": "in vitro; human, 1 μM", "result": 49, "unit": "%"}, {"measurement": "Percent Remaining 20 min", "setting": "in vitro; human, 1 μM", "result": 31, "unit": "%"}, {"measurement": "Percent Remaining 30 min", "setting": "in vitro; human, 1 μM", "result": 18, "unit": "%"}, {"measurement": "Percent Remaining 60 min", "setting": "in vitro; human, 1 μM", "result": 6.9, "unit": "%"}, {"measurement": "half-life at 1 µM", "setting": "in vitro; human", "result": 11.5, "unit": "min"}, {"measurement": "microsomal CLint at 1 μM", "setting": "in vitro; human", "result": 120, "unit": "µL/min/mg"}, {"measurement": "Percent Remaining 0 min", "setting": "in vitro; mouse, 1 μM", "result": 100, "unit": "%"}, {"measurement": "Percent Remaining 10 min", "setting": "in vitro; mouse, 1 μM", "result": 20, "unit": "%"}, {"measurement": "Percent Remaining 20 min", "setting": "in vitro; mouse, 1 μM", "result": 8.9, "unit": "%"}, {"measurement": "Percent Remaining 30 min", "setting": "in vitro; mouse, 1 μM", "result": 4.3, "unit": "%"}, {"measurement": "Percent Remaining 60 min", "setting": "in vitro; mouse, 1 μM", "result": 1.2, "unit": "%"}, {"measurement": "half-life at 1 µM", "setting": "in vitro; mouse", "result": 4.6, "unit": "min"}, {"measurement": "microsomal CLint at 1 μM", "setting": "in vitro; mouse", "result": 300, "unit": "µL/min/mg"}]}
{"smiles": "COCc1cc(CN(C)C2CCCCC2)c(O)c2ncccc12", "note": "[Compound N269D8]", "values": [{"measurement": "IC50", "setting": "HO-null cells", "result": 4520, "unit": "nM"}, {"measurement": "Myc Index N", "setting": "HO-N-myc cells; ID50 in HO-null cells divided by ID50 in HO—N-myc cells", "result": 5.3}, {"measurement": "IC50", "setting": "HO-N-myc cells; Rattus norvegicus, cell growth inhibition, 72 h, methylene blue, read-out: ID50 HO—N-myc", "result": 850, "unit": "nM"}, {"measurement": "Myc Index C", "setting": "HO-c-Myc cells; ID50 in HO-null cells divided by ID50 in HO-c-myc cells", "result": 6.3}, {"measurement": "IC50", "setting": "HO-c-Myc cells; Rattus norvegicus, cell growth inhibition, 72 h, methylene blue, read-out: ID50 HO-c-myc", "result": 720, "unit": "nM"}, {"measurement": "toxicity to N-myc amplified lines versus SH-EP cells", "setting": "[1]", "result": "more toxic to the N-myc amplified cell lines, IMR32 and NBL-WN than to SH-EP cells"}]}
{"smiles": "CCN(CC)c1ccc(/C=N\\NC(=O)c2nnn(-c3nonc3N)c2CN2CCCCCC2)c(O)c1", "note": "[Compound 4]", "values": [{"measurement": "IC50", "setting": "SK-Mel-103", "result": 100, "unit": "nM"}, {"measurement": "IC50", "setting": "SK-Mel-19", "result": 150, "unit": "nM"}, {"measurement": "Percent Remaining 0 min", "setting": "in vitro; human, 1 μM", "result": 100, "unit": "%"}, {"measurement": "Percent Remaining 10 min", "setting": "in vitro; human, 1 μM", "result": 56, "unit": "%"}, {"measurement": "Percent Remaining 20 min", "setting": "in vitro; human, 1 μM", "result": 37, "unit": "%"}, {"measurement": "Percent Remaining 30 min", "setting": "in vitro; human, 1 μM", "result": 28, "unit": "%"}, {"measurement": "Percent Remaining 60 min", "setting": "in vitro; human, 1 μM", "result": 20, "unit": "%"}, {"measurement": "half-life at 1 µM", "setting": "in vitro; human", "result": 16, "unit": "min"}, {"measurement": "microsomal CLint at 1 μM", "setting": "in vitro; human", "result": 87, "unit": "µL/min/mg"}, {"measurement": "Percent Remaining 0 min", "setting": "in vitro; mouse, 1 μM", "result": 100, "unit": "%"}, {"measurement": "Percent Remaining 10 min", "setting": "in vitro; mouse, 1 μM", "result": 3.1, "unit": "%"}, {"measurement": "Percent Remaining 20 min", "setting": "in vitro; mouse, 1 μM", "result": 1.8, "unit": "%"}, {"measurement": "Percent Remaining 30 min", "setting": "in vitro; mouse, 1 μM", "result": 1.3, "unit": "%"}, {"measurement": "Percent Remaining 60 min", "setting": "in vitro; mouse, 1 μM", "result": "<1.0", "unit": "%"}, {"measurement": "half-life at 1 µM", "setting": "in vitro; mouse", "result": 2, "unit": "min"}, {"measurement": "microsomal CLint at 1 μM", "setting": "in vitro; mouse", "result": 690, "unit": "µL/min/mg"}]}
{"smiles": "CCCN(CCC)Cc1c(C(=O)N/N=C/c2ccc(N(CC)CC)cc2O)nnn1-c1nonc1N", "note": "[Compound 7]", "values": [{"measurement": "IC50", "setting": "SK-Mel-103", "result": 250, "unit": "nM"}, {"measurement": "IC50", "setting": "SK-Mel-19", "result": 350, "unit": "nM"}, {"measurement": "Percent Remaining 0 min", "setting": "in vitro; human, 1 μM", "result": 100, "unit": "%"}, {"measurement": "Percent Remaining 10 min", "setting": "in vitro; human, 1 μM", "result": 46, "unit": "%"}, {"measurement": "Percent Remaining 20 min", "setting": "in vitro; human, 1 μM", "result": 25, "unit": "%"}, {"measurement": "Percent Remaining 30 min", "setting": "in vitro; human, 1 μM", "result": 20, "unit": "%"}, {"measurement": "Percent Remaining 60 min", "setting": "in vitro; human, 1 μM", "result": 11, "unit": "%"}, {"measurement": "half-life at 1 µM", "setting": "in vitro; human", "result": 10.7, "unit": "min"}, {"measurement": "microsomal CLint at 1 μM", "setting": "in vitro; human", "result": 130, "unit": "µL/min/mg"}, {"measurement": "Percent Remaining 0 min", "setting": "in vitro; mouse, 1 μM", "result": 100, "unit": "%"}, {"measurement": "Percent Remaining 10 min", "setting": "in vitro; mouse, 1 μM", "result": 26, "unit": "%"}, {"measurement": "Percent Remaining 20 min", "setting": "in vitro; mouse, 1 μM", "result": 7.1, "unit": "%"}, {"measurement": "Percent Remaining 30 min", "setting": "in vitro; mouse, 1 μM", "result": 3.8, "unit": "%"}, {"measurement": "Percent Remaining 60 min", "setting": "in vitro; mouse, 1 μM", "result": 1.4, "unit": "%"}, {"measurement": "half-life at 1 µM", "setting": "in vitro; mouse", "result": 5.2, "unit": "min"}, {"measurement": "microsomal CLint at 1 μM", "setting": "in vitro; mouse", "result": 270, "unit": "µL/min/mg"}]}
{"smiles": "CCN(CC)c1ccc(/C=N/NC(=O)Cn2c3ccccc3c(=O)c3ccccc32)c(O)c1", "note": "[Compound 2]", "values": [{"measurement": "IC50", "setting": "SK-Mel-103", "result": 400, "unit": "nM"}, {"measurement": "IC50", "setting": "SK-Mel-19", "result": 400, "unit": "nM"}, {"measurement": "Percent Remaining 0 min", "setting": "in vitro; human, 1 μM", "result": 100, "unit": "%"}, {"measurement": "Half-life", "setting": "in vitro; human, 1 μM", "result": ">60", "unit": "min"}, {"measurement": "Percent Remaining 10 min", "setting": "in vitro; human, 1 μM", "result": 119, "unit": "%"}, {"measurement": "Percent Remaining 20 min", "setting": "in vitro; human, 1 μM", "result": 91, "unit": "%"}, {"measurement": "Percent Remaining 30 min", "setting": "in vitro; human, 1 μM", "result": 83, "unit": "%"}, {"measurement": "Percent Remaining 60 min", "setting": "in vitro; human, 1 μM", "result": 74, "unit": "%"}, {"measurement": "half-life at 1 µM", "setting": "in vitro; human", "result": "> 60", "unit": "min"}, {"measurement": "microsomal CLint at 1 μM", "setting": "in vitro; human", "result": "< 20", "unit": "µL/min/mg"}, {"measurement": "Percent Remaining 0 min", "setting": "in vitro; mouse, 1 μM", "result": 100, "unit": "%"}, {"measurement": "Percent Remaining 10 min", "setting": "in vitro; mouse, 1 μM", "result": 45, "unit": "%"}, {"measurement": "Percent Remaining 20 min", "setting": "in vitro; mouse, 1 μM", "result": 32, "unit": "%"}, {"measurement": "Percent Remaining 30 min", "setting": "in vitro; mouse, 1 μM", "result": 26, "unit": "%"}, {"measurement": "Percent Remaining 60 min", "setting": "in vitro; mouse, 1 μM", "result": 21, "unit": "%"}, {"measurement": "half-life at 1 µM", "setting": "in vitro; mouse", "result": 13.5, "unit": "min"}, {"measurement": "microsomal CLint at 1 μM", "setting": "in vitro; mouse", "result": 100, "unit": "µL/min/mg"}]}
